Assay results as given in patent US12226400B2, “Neuroprotective disruption of Kv2.1/syntaxin interaction by small molecules” (UNIVERSITY OF PITTSBURGH-OF THE COMMONWEALTH SYSTEM OF …, priority 2018, dated 2025).

Experiments:
[1] = tested on: L5B corticocollicular neurons; assay: Slice electrophysiology, intrinsic properties of L5B corticocollicular neurons; format: cell-based, mouse; settings: 10 min incubation in 10 μM cpd5
Method: Stereotaxic injections for electrophysiology. Male or female ICR mice P21-30 (Jackson Laboratory) were anesthetized with 3% isoflurane (1.5% maintenance) and placed on the stereotaxic frame (Kopf). Core body temperature was maintained at ˜37° C. with a heating pad and eyes were protected with ophthalmic ointment. Lidocaine (1%) was injected under the scalp and an incision was made into the skin at the midline to expose the skull. […] A volume of ˜0.12 μl fluorospheres was pressure injected (25 psi, 10 ms duration) from capillary pipettes (Drummond Scientific) with a Picospritzer (Parker-Hannifin). After injection, the pipette was held in the brain for 2 min before slowly withdrawing. The scalp of the mouse was closed with cyanoacrylate adhesive. Mice were injected with the non-steroidal anti-inflammatory drug carprofen at 5 mg/kg (Henry Schein Animal Health) for 24 hours prior to and 48 hours after surgery. Mice were monitored for signs of postoperative stress and pain.
Slice electrophysiology. Slice electrophysiology experiments were performed in mice at least 2 days after fluorospheres injections. Following anesthesia with isoflurane, mice were immediately decapitated. Brains were rapidly removed and coronal slices (300 μm) containing the auditory cortex were prepared in a cutting solution at 1° C. using a Vibratome (VT1200 S; Leica). For evoked EPSC recordings, the cutting solution, pH 7.4, ˜300 mOsm, contained the following (in mM): 2.5 KCl, 1.25 NaH2PO4, 25 NaHCO3, 0.5 CaCl2, 7 MgCl2, 7 Glucose, 205 sucrose, 1.3 ascorbic acid, and 3 sodium pyruvate (bubbled with 95% O2/5% CO2). For evaluation of corticocollicular neuron electrical properties, the cutting solution, pH ˜7.4, contained the following (in mM): 135 NMDG, 1 KCl, 1.2 KH2PO4, 1.5 MgCl2, 1.5 CaCl2, 20 NaHCO3, 10 D-Glucose. The slices were then transferred and incubated at 34° C. for 30 min (bubbled with 95% O2/5% CO2) prior to recording. The incubating and recording solution contained the following (in mM): 125 NaCl, 2.5 KCl, 1.25 NaH2PO4, 25 NaHCO3, 2 CaCl2, 1 MgCl2, 10 D-Glucose, 1.3 ascorbic acid, and 3 sodium pyruvate (bubbled with 95% O2/5% CO2). Slices were stored at room temperature until the time of recording. The flow rate of the ACSF was ˜1.5 ml/min, and its temperature was maintained at 34° C. using an in-line heating system (Warner). Both slice electrophysiology experiments were carried out using MultiClamp-700B amplifier equipped with Digidata-1440A A/D converter and Clampex (Molecular Devices). Data were sampled at 10 kHz and Bessel filtered at 4 kHz. Pipette capacitance was compensated and series resistance for recordings was lower than 15 MΩ and measured throughout the experiments. Recordings were excluded from further analysis if the series resistance changed by more than 15% compared to the baseline period.
All data for intrinsic properties were acquired and analyzed within the Ephus software package. Series resistance was determined in voltage-clamp mode (command potential set at −70 mV) by giving a −5 mV voltage step. […] The difference between baseline and steady-state hyperpolarized current (ΔI) was used to calculate Rinput using the following formula: Rinput=−5 mV/ΔI−Rseries. The average resting membrane potential (Vm) was calculated by holding the neuron in voltage-follower mode (current clamp, at I=0) ˜2 minutes after breaking in and averaging the membrane potential over the next 30 sec. Subthreshold and suprathreshold membrane responses in current clamp were elicited by injecting −200 to +400 pA in 50 pA increments (baseline Vm was maintained at −70 mV, by injecting the required current, if necessary). Sag was measured during the −200 pA current injection, using the formula, SAG=(Vmin−Vsteady-state)/Vsteady-state. The first resulting action potential (AP) at rheobase was analyzed for AP width. AP width was calculated as the full-width at the half-maximum amplitude of the AP. […]

[2] = target: T1, munc18/syntaxin 1A (Homo sapiens, UniProt Q16623); assay: Co-immunoprecipitation of munc18 and syntaxin in transfected HEK293 cells; format: cell-based; settings: mean±SEM
T1 construct: syntaxin 1A plasmid a gift RC204873; host or cells: HEK293
T1 sequence (Q16623 whole entry, species assumed): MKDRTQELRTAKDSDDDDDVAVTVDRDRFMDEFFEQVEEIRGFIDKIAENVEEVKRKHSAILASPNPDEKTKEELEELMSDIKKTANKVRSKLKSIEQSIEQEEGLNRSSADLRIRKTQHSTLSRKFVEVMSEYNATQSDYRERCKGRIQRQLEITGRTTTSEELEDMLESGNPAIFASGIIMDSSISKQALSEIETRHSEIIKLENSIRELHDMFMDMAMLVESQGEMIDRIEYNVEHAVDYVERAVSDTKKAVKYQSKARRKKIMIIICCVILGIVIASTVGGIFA
Method: Western Blot. Co-immunoprecipitation of munc18 and syntaxin was carried out using PEI transfection of HEK293 cells (American Type Culture Collection) plated and maintained in DMEM medium with 10% FBS and penicillin/streptomycin. 24 hr prior to transfection, HEK293 cells are plated onto 150 mm petri dishes from confluent T75 flasks at the ratio of 2/3 flask per plate. 24 hr after plating, PEI transfection was carried out by mixing 25% munc18 (OriGene RC204873), 25% syntaxin 1A (gift from Raymond A Frizzell, Children's Hospital of Pittsburgh), and 50% pcDNA3 (Invitrogen) plasmids ([…] total plasmids with 500 μl medium without penicillin/streptomycin, and 110 μl PEI at 1 mg/ml). The PEI was lastly added to the mixture drop-wise to avoid clumping of the DNA precipitates. This transfection reagent was allowed to incubate in room temperature for at least 5 min. The HEK293 medium was replaced with medium without penicillin/streptomycin prior to the addition of the transfection mixture. At 24 hr after transfection, the transfection medium was replaced with regular medium containing either cpd5 or DMSO. The cells were lysed and protein was harvested 24 hr after cpd5/DMSO treatment using 200 μl NP40 buffer (Invitrogen) containing phenylmethylsulfonyl fluoride (PMSF, Sigma-Aldrich) and protease inhibitor cocktail (¼ tablet, cOmplete Mini, EDTA-free, Sigma-Aldrich). The resulting HEK293 sample was immunoprecipitated using mouse anti-syntaxin 1A antibody (abeam). The western blot was probed using the Biogen system with the same syntaxin 1A antibody and mouse anti-Flag (Sigma-Aldrich) used for the detection of munc18. Quantification of protein pulldown was normalized to the syntaxin signal before comparisons. SDS-PAGE in this study are run in 10% acrylamide. Small variations in band separation are caused by the semi-wet transfer method.

## COc1ccc(CNC(=O)Nc2cccc(-c3nc4ccccc4s3)c2)cc1OC [cpd5, 3-[3-(1,3-benzothiazol-2-yl)phenyl]-1-[(3,4-dimethoxyphenyl)methyl]urea]
[1]
  action potential threshold: no significant effect
  action potential width: no significant effect
  firing rate: no significant effect
  input resistance: lack of significant effect
  resting membrane potential: lack of significant effect
  sag ratio (V2/V1): lack of significant effect
[2]; 10 μM cpd5, 24 hr
  munc18 co-immunoprecipitated with syntaxin, cpd5/DMSO: 1.032±0.034
[2]; 30 μM cpd5, 24 hr
  munc18 co-immunoprecipitated with syntaxin, cpd5/DMSO: 0.4459±0.09367
[2]; 100 μM cpd5, 24 hr
  munc18 co-immunoprecipitated with syntaxin, cpd5/DMSO: 0.4339±0.135
